According to ChEMBL document CHEMBL5036323, “Discovery of RRx-001, a Myc and CD47 Downregulating Small Molecule with Tumor Targeted Cytotoxicity and Healthy Tissue Cytoprotective Properties in Clinical Development” (J Med Chem, 2021):

What was measured:
[1] = tested on: SCC-7; experiment: Antitumor activity against mouse SCC-7 cells implanted in C3H mouse assessed as tumor growth time at 12 mg/kg, ip treated every other day 3 times in total (reference value: 2.8 +/- 0.6 day); type: functional
[2] = tested on: SCC-7; experiment: Antitumor activity against mouse SCC-7 cells implanted in C3H mouse assessed as tumor growth time delay at 12 mg/kg, ip treated every other day 3 times in total; type: functional
[3] = tested on: SCC-7; experiment: Antiproliferative activity against mouse SCC-7 cells assessed as cell growth inhibition by CCK8 assay; type: functional, cell-based
[4] = tested on: UMSCC22B; experiment: Antiproliferative activity against human UMSCC22B cells assessed as cell growth inhibition by CCK8 assay; type: functional, cell-based
[5] = tested on: PANC-1; experiment: Antiproliferative activity against human PANC-1 cells assessed as cell growth inhibition by CCK8 assay; type: functional, cell-based
[6] = tested on: M21; experiment: Antiproliferative activity against human M21 cells assessed as cell growth inhibition by CCK8 assay; type: functional, cell-based
[7] = tested on: U-87 MG; experiment: Antiproliferative activity against human U87 cells assessed as cell growth inhibition by CCK8 assay; type: functional, cell-based, U-87MG ATCC
[8] = tested on: RKO; experiment: Antiproliferative activity against human RKO cells assessed as cell growth inhibition by CCK8 assay; type: functional, cell-based
[9] = tested on: HT-29; experiment: Antiproliferative activity against human HT-29 cells assessed as cell growth inhibition by CCK8 assay; type: functional, cell-based
[10] = tested on: SNB-75; experiment: Antiproliferative activity against human SNB-75 cells assessed as cell growth inhibition by CCK8 assay; type: functional, cell-based
[11] = tested on: MCF7; experiment: Antiproliferative activity against human MCF7 cells assessed as cell growth inhibition by CCK8 assay; type: functional, cell-based
[12] = tested on: A498; experiment: Antiproliferative activity against human A498 cells assessed as cell growth inhibition by CCK8 assay; type: functional, cell-based
[13] = tested on: IMR-32; experiment: Antiproliferative activity against human IMR-32 cells assessed as cell growth inhibition by CCK8 assay; type: functional, cell-based
[14] = tested on: A549; experiment: Antiproliferative activity against human A549 cells assessed as cell growth inhibition by CCK8 assay; type: functional, cell-based
[15] = Terminal half life in human plasma; type: ADME, cell-free; conditions: read-out: beta t1/2

Structure (SMILES) | Time [1] [days] | Time [2] [days] | IC50 [3] [pM] | IC50 [4] [pM] | IC50 [5] [pM] | IC50 [6] [pM] | IC50 [7] [pM] | IC50 [8] [pM] | IC50 [9] [pM] | IC50 [10] [pM] | IC50 [11] [pM] | IC50 [12] [pM] | IC50 [13] [pM] | IC50 [14] [pM] | half-life [15] [min]
N[C@@H](CSCC(=O)N1CC([N+](=O)[O-])([N+](=O)[O-])C1)C(=O)O | 3.9 | 1.1 | – | – | – | – | – | – | – | – | – | – | – | – | –
O=C(CBr)N1CCC1 | 3.8 | 1 | – | – | – | – | – | – | – | – | – | – | – | – | –
C[N+](C)(C)CC(=O)N1CC([N+](=O)[O-])([N+](=O)[O-])C1 | 3.6 | 0.8 | – | – | – | – | – | – | – | – | – | – | – | – | –
O=C(CBr)N1CC([N+](=O)[O-])([N+](=O)[O-])C1 [NIBROZETONE] | 4.8 | 2 | 1.8 | 2.3 | 2.3 | 2.6 | 2.7 | 3 | 3.4 | 3.8 | 4 | 4.9 | 5.1 | 6 | 27.6
